In patent US10149840B2, “OCT3 activity inhibitor containing imidazopyridine derivative as active component, and OCT3 detection agent” (SHIN NIPPON BIOMEDICAL LABORATORIES, LTD., priority 2012, dated 2018):

Tests used:
OCT3 = OCT3 (Homo sapiens (Human), UniProt O75751); settings: Non Patent Literature 1; read-out: IC50 (reported); cited from earlier work
[1] = measured Brain/Blood verification experiment in BALB/c mice; format: in vivo; settings: mouse, 5 mg/kg, five minutes after administration, brain homogenate vs plasma
Procedure: The Brain/Blood value predicted with the above method was verified with an experiment using BALB/c mice. As test substances in the verification experiment, two compounds of SR-4277 and Famotidine were used. […] The test substance was administered in 5 mg/kg to the mice. The mice were anesthetized in advance with isoflurane, and exsanguination was performed from the vena cava of the mice five minutes after the administration. Brains were removed, and weights thereof were measured. After that, a brain homogenate was prepared. The collected blood was subjected to centrifugation, and plasma was thereby prepared. Concentrations of the test substance in plasma and the brain homogenate were measured with HPLC and MS.

ddY male mice = assay: forced swimming test; format: in vivo; settings: low dose administered alone (imipramine 4 mg/kg or OCT3 inhibitor 0.25 μl/hr)
Procedure: In this forced swimming test, mice or rats as test animals are forced to swim in water tanks from which the mice or rats cannot escape. Then, an immobility behavior of the test animals after an escape behavior thereof (a state in which only the head is above the water surface and the test animals are floating without moving the hands or feet) is observed. When the test animals are put into the water tanks again 24 hours or more later, the immobility behavior is expressed earlier than in the first experiment. Duration of this immobility behavior for a certain time (usually about 5 minutes) is relatively accurately reproduced.
Specifically, a test is performed as follows.
In an experiment, ddY male mice each weighing 28 to 33 g (Japan SLC, Inc.) are used. […] After being acquired, these mice are bred in a room in which temperature (22 to 24° C.), humidity (50 to 60%), and lighting (lighting 8:00 to 20:00) are controlled for three or more days. In the first forced swimming test, all the experimental mice are forced to swim in glass cylinders (diameter 15.5 cm, depth 17 cm, water depth 12 cm, water temperature 25° C.) for 300 seconds to measure immobility time. The mice are distributed into experimental groups (an OCT3 inhibitor-administrated group, a positive control group, and a negative control group) such that an average value of the immobility time is almost the same. […]

Sequence of OCT3 (O75751 whole entry): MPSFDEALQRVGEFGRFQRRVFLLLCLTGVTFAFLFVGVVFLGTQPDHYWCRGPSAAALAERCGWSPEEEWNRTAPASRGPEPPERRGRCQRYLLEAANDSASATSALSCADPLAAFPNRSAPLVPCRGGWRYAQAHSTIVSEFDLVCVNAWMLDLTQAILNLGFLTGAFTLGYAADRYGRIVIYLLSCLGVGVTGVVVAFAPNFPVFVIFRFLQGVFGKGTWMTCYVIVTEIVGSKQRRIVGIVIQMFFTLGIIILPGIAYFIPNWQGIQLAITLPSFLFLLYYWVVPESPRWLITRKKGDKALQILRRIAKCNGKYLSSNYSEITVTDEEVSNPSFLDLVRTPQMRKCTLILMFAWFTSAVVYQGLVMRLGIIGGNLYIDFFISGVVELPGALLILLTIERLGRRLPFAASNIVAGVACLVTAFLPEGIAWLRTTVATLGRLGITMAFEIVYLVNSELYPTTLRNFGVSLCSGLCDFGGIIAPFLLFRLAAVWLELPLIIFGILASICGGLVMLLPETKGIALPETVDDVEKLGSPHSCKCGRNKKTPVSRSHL

Compound | IC50 (OCT3) [µM] | Kp at 5 min [1] | average value of the immobility time (ddY male mice)
NC(N)=Nc1nc(CSCCC(N)=NS(N)(=O)=O)cs1 [Famotidine] | 20 | 0.1 | 
CN/C(=N/CCSCc1nc[nH]c1C)NC#N [cimetidine] | 240 |  | 
CN1C2CCCC1CC(NC(=O)c1nn(C)c3ccccc13)C2 (stereo not drawn) [granisetron] | ≤ 100 |  | 
CN(C)CCCN1c2ccccc2CCc2ccccc21 [imipramine] |  |  | about 200 seconds
Cn1cc(C(=O)[C@@H]2CCc3nc[nH]c3C2)c2ccccc21 [ramosetron] | ≤ 100 |  | 
